Experimental data taken from ChEMBL document CHEMBL4017474, “A calcineurin antifungal strategy with analogs of FK506” (Bioorg Med Chem Lett, 2017).
Calls of active or inactive are those of the source. The rule behind the calls is not given here.

Legend:
[1] = biological target: T1, Peptidyl-prolyl cis-trans isomerase FKBP1A (Homo sapiens, UniProt P62942); assay: Antagonist activity at human FKBP12 measured after 30 mins by fluorescein labelled SLF tracer based fluorescence polarization assay
[2] = biological target: T1, Peptidyl-prolyl cis-trans isomerase FKBP1A; assay: (§1) Antagonist activity at recombinant human N-terminal His6-tagged FKBP12 expressed in Escherichia coli assessed as inhibition of FKBP12 binding to calcineurin at 5 uL using […] pretreated for 1 hr followed by substrate addition measured after 1 hr by biomol green dye based spectrophotometric method
[3] = biological target: T1, Peptidyl-prolyl cis-trans isomerase FKBP1A; assay: as §1, with “of FK506 mediated” for “of”, “calcineurin” for “calcineurin at 5 uL”
Jurkat = assay: Immunosuppressive activity in PMA/ionomycin stimulated human Jurkat T cells assessed as suppression of IL2 production pretreated for 15 to 30 mins followed by PMA/ionomycin addition measured after 18 to 20 hrs by ELISA; assay type: cell-based
PBMC [4] = assay: Reversal of FK506-induced inhibition of cell proliferation in concanavalin A stimulated human PBMC at 1 uM measured after 72 hrs by CellTiter-Glo assay relative to control; assay type: functional; parameters: scale not given: the % may be the effect or the level left
PBMC [5] = assay: Antiproliferative activity against concanavalin A stimulated human PBMC at 1 to 2 ug/ml measured after 72 hrs by CellTiter-Glo assay; assay type: cell-based
Aspergillus fumigatus [6] = assay: Antifungal activity against Aspergillus fumigatus assessed as spore germination at 12.5 ug/ml measured after 48 hrs in presence of FK506 by broth dilution method relative to control; assay type: functional
Aspergillus fumigatus [7] = assay: Antifungal activity against Aspergillus fumigatus up to 25 ug/ml measured after 48 hrs by broth dilution method; assay type: functional
HepG2 = assay: Cytotoxicity against human HepG2 cells; assay type: cell-based
Vero 76 = assay: Cytotoxicity against African green monkey Vero 76 cells; assay type: cell-based; settings: Chlorocebus sabaeus
[8] = Clearance in mouse at 3 mg/kg, iv; assay type: ADME, organism-based; settings: in vivo
[9] = Volume of distribution at steady state in mouse at 3 mg/kg, iv; assay type: ADME, organism-based; settings: in vivo, read-out: Vdss
[10] = Terminal half-life in mouse at 3 mg/kg, iv; assay type: ADME, organism-based; settings: in vivo, read-out: beta t1/2 (converted)
[11] = AUClast in mouse at 3 mg/kg, iv; assay type: ADME, organism-based; parameters: dose 3 mg/kg, time 0 - last, route intravenous; settings: in vivo
Aspergillus fumigatus [12] = assay: Permeability across Aspergillus fumigatus at 12.5 ug/ml relative to human PBMC; assay type: ADME
[13] = Antagonist activity at Aspergillus fumigatus FKBP12 measured after 30 mins by fluorescein labelled SLF tracer based fluorescence polarization assay
PBMC [14] = assay: Reversal of FK506-induced inhibition of cell proliferation in concanavalin A stimulated human PBMC at 0.1 uM measured after 72 hrs by CellTiter-Glo assay; assay type: functional, cell-based
Aspergillus fumigatus [15] = assay: Antifungal activity against Aspergillus fumigatus assessed as spore germination at 6.25 to 25 ug/ml measured after 48 hrs in presence of FK506 by broth dilution method; assay type: functional
[16] = Tmax in mouse at 10 mg/kg, po; assay type: ADME, organism-based; settings: in vivo
[17] = Cmax in mouse at 10 mg/kg, po; assay type: ADME, organism-based; parameters: dose 10 mg/kg, route oral; settings: in vivo
[18] = AUClast in mouse at 10 mg/kg, po; assay type: ADME, organism-based; parameters: dose 10 mg/kg, time 0 - last, route oral; settings: in vivo

T1 sequence (P62942 whole entry): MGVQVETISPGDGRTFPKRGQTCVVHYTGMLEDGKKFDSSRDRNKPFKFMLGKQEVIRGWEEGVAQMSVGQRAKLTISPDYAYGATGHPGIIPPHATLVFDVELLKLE

Compound	IC50 [1] [nM]	inhibition [2]	IC50 [3] [nM]	IC50 (Jurkat) [nM]	Activity (PBMC [4]) [%]	Activity (PBMC [5])	Activity (Aspergillus fumigatus [6])	Activity (Aspergillus fumigatus [7])	IC50 (HepG2) [nM]	IC50 (Vero 76) [nM]	other results
CO[C@H]1C[C@@H](C)C/C(C)=C/[C@@H](/C=C/CCCC(=O)N2CCNCC2)C(=O)C[C@H](O)[C@@H](C)[C@@H](/C(C)=C/[C@@H]2CC[C@@H](O)[C@H](OC)C2)OC(=O)[C@@H]2CCCCN2C(=O)C(=O)[C@]2(O)O[C@H]1[C@@H](OC)C[C@H]2C	12.6	inactive	1810	> 10000	27.5	Non-Toxic	36.5%	inactive	> 100000	> 100000	–
CO[C@H]1C[C@@H](C)C/C(C)=C/[C@@H](CC(=O)N2CCCC2)C(=O)C[C@H](O)[C@@H](C)[C@@H](/C(C)=C/[C@@H]2CC[C@@H](O)[C@H](OC)C2)OC(=O)[C@@H]2CCCCN2C(=O)C(=O)[C@]2(O)O[C@H]1[C@@H](OC)C[C@H]2C	22.1	inactive	–	> 10000	–	Non-Toxic	90.5%	inactive	> 100000	> 100000	clearance [8]: 22.8 mL/min/kg; Vd [9]: 1.01 L/kg; half-life [10]: 42.8 min; AUC(0-t) [11]: 2140 ng·h/mL
CO[C@H]1C[C@@H](C)C/C(C)=C/[C@@H](CCCC(=O)N2CCC(CO)CC2)C(=O)C[C@H](O)[C@@H](C)[C@@H](/C(C)=C/[C@@H]2CC[C@@H](OCCO)[C@H](OC)C2)OC(=O)[C@@H]2CCCCN2C(=O)C(=O)[C@]2(O)O[C@H]1[C@@H](OC)C[C@H]2C	23.6	inactive	–	> 10000	81.7	Non-Toxic	24%	inactive	> 100000	> 100000	permeability (Aspergillus fumigatus [12]): 75%
CC[C@@H]1/C=C(\C)C(O)[C@H](C)C[C@H](OC)[C@H]2O[C@@](O)(C(=O)C(=O)N3CCCC[C@H]3C(=O)O[C@H](/C(C)=C/[C@@H]3CC[C@@H](O)[C@H](OC)C3)[C@H](C)[C@@H](O)CC1=O)[C@H](C)C[C@@H]2OC (stereo partly specified)	6.8	inactive	1310	> 10000	78.7	Non-Toxic	83 - 86.8%	inactive	> 100000	> 100000	IC50 [13]: 18.5 nM; Activity (PBMC [14]): inactive; Activity (Aspergillus fumigatus [15]): inactive; clearance [8]: 60.8 mL/min/kg; Vd [9]: 2.58 L/kg; half-life [10]: 66.6 min; AUC(0-t) [11]: 787 ng·h/mL; Tmax [16]: 15 min; Cmax [17]: 184 ng/mL; AUC(0-t) [18]: 208 ng·h/mL
CC[C@@H]1/C=C(\C)C[C@H](C)C[C@H](OC)[C@H]2O[C@@](O)(C(=O)C(=O)N3CCCC[C@H]3C(=O)O[C@H](/C(C)=C/[C@@H]3CC[C@@H](OC(=O)N4CCN(C)CC4)[C@H](OC)C3)[C@H](C)[C@@H](O)CC1=O)[C@H](C)C[C@@H]2OC	11	inactive	1740	> 10000	79.8	Non-Toxic	68%	inactive	> 100000	> 100000	–
CO[C@H]1C[C@@H](C)C/C(C)=C/[C@@H](CCCC(=O)N2CC(N3CCOCC3)C2)C(=O)C[C@H](O)[C@@H](C)[C@@H](/C(C)=C/[C@@H]2CC[C@@H](O)[C@H](OC)C2)OC(=O)[C@@H]2CCCCN2C(=O)C(=O)[C@]2(O)O[C@H]1[C@@H](OC)C[C@H]2C	9.52	inactive	1080	> 10000	49.3	Non-Toxic	49.6%	inactive	> 100000	> 100000	IC50 [13]: 12.8 nM
CO[C@H]1C[C@@H](C)C/C(C)=C/[C@@H](CCCC(=O)N2CCN(Cc3ccccn3)CC2)C(=O)C[C@H](O)[C@@H](C)[C@@H](/C(C)=C/[C@@H]2CC[C@@H](O)[C@H](OC)C2)OC(=O)[C@@H]2CCCCN2C(=O)C(=O)[C@]2(O)O[C@H]1[C@@H](OC)C[C@H]2C	11.2	inactive	1290	> 10000	88.3	Non-Toxic	47.4%	inactive	> 100000	> 100000	–
CO[C@H]1C[C@@H](C)C/C(C)=C/[C@@H](CCCC(=O)N2CCN(C)CC2)C(=O)C[C@H](O)[C@@H](C)[C@@H](/C(C)=C/[C@@H]2CC[C@@H](OCCO)[C@H](OC)C2)OC(=O)[C@@H]2CCCCN2C(=O)C(=O)[C@]2(O)O[C@H]1[C@@H](OC)C[C@H]2C	19.1	inactive	–	> 10000	67.8	Non-Toxic	24 - 42%	inactive	> 100000	> 100000	Activity (PBMC [14]): inactive; Activity (Aspergillus fumigatus [15]): Active
CO[C@H]1C[C@@H](C)C/C(C)=C/[C@@H](CCN(C)C)C(=O)C[C@H](O)[C@@H](C)[C@@H](/C(C)=C/[C@@H]2CC[C@@H](O)[C@H](OC)C2)OC(=O)[C@@H]2CCCCN2C(=O)C(=O)[C@]2(O)O[C@H]1[C@@H](OC)C[C@H]2C	19.2	inactive	–	> 10000	105.6	Non-Toxic	54.3%	inactive	> 100000	> 100000	–
CO[C@H]1C[C@@H](C)C/C(C)=C/[C@@H](CCCC(=O)NCCc2ccccn2)C(=O)C[C@H](O)[C@@H](C)[C@@H](/C(C)=C/[C@@H]2CC[C@@H](O)[C@H](OC)C2)OC(=O)[C@@H]2CCCCN2C(=O)C(=O)[C@]2(O)O[C@H]1[C@@H](OC)C[C@H]2C	14.3	inactive	850	> 10000	36.6	Non-Toxic	31%	inactive	> 100000	> 100000	–
CO[C@H]1C[C@@H](C)C/C(C)=C/[C@@H](CCCC(=O)N2CC(O)C2)C(=O)C[C@H](O)[C@@H](C)[C@@H](/C(C)=C/[C@@H]2CC[C@@H](O)[C@H](OC)C2)OC(=O)[C@@H]2CCCCN2C(=O)C(=O)[C@]2(O)O[C@H]1[C@@H](OC)C[C@H]2C	12.5	inactive	1110	> 10000	49.9	Non-Toxic	24%	inactive	> 100000	> 100000	–
CO[C@H]1C[C@@H](C)C/C(C)=C/[C@@H](CCCC(=O)NCCN2CCOCC2)C(=O)C[C@H](O)[C@@H](C)[C@@H](/C(C)=C/[C@@H]2CC[C@@H](O)[C@H](OC)C2)OC(=O)[C@@H]2CCCCN2C(=O)C(=O)[C@]2(O)O[C@H]1[C@@H](OC)C[C@H]2C	11.5	inactive	824	> 10000	45.9	Non-Toxic	39.7%	inactive	> 100000	> 100000	–
CO[C@H]1C[C@@H](C)C/C(C)=C/[C@@H](CC(=O)N2CCCC2)C(=O)C[C@H](O)[C@@H](C)[C@@H](/C(C)=C/[C@@H]2CC[C@@H](OC(=O)N3CC(O)C3)[C@H](OC)C2)OC(=O)[C@@H]2CCCCN2C(=O)C(=O)[C@]2(O)O[C@H]1[C@@H](OC)C[C@H]2C	22.6	inactive	–	> 10000	63	Non-Toxic	22%	inactive	> 100000	> 100000	clearance [8]: 16.1 mL/min/kg; Vd [9]: 1.35 L/kg; half-life [10]: 81.6 min; AUC(0-t) [11]: 2780 ng·h/mL; Tmax [16]: 30 min; Cmax [17]: 814 ng/mL; AUC(0-t) [18]: 1860 ng·h/mL; permeability (Aspergillus fumigatus [12]): 75%
CO[C@H]1C[C@@H](C)C/C(C)=C/[C@@H](CCCC(=O)N(CCO)CCO)C(=O)C[C@H](O)[C@@H](C)[C@@H](/C(C)=C/[C@@H]2CC[C@@H](O)[C@H](OC)C2)OC(=O)[C@@H]2CCCCN2C(=O)C(=O)[C@]2(O)O[C@H]1[C@@H](OC)C[C@H]2C	13.4	inactive	989	> 10000	36.2	Non-Toxic	35.7%	inactive	> 100000	> 100000	IC50 [13]: 22.5 nM
